Reference: article PMC11411711 (ACS Nano, 2024)
Like-named read-outs stand apart in the source and are kept apart here. Square brackets hold non-standard residues; d marks the D form. Peptide text beside a SMILES is read from it. * marks the point of attachment. 5FAM = O=C1OC2(c3ccc(O)cc3Oc3cc(O)ccc32)c2ccc(C(=O)*)cc21; Nle = CCCC[C@H](N)C(=O)O; Cbz = O=C(OCc1ccccc1)*

Legend:
calpain [1] = settings: cited from earlier work; for Ki: read-out: Ki for calpain; for IC50: read-out: IC50, calpain inhibitor
cathepsin L = settings: read-out: Ki for cathepsin L; calpastatin peptide; ref [32]−[35]; cited from earlier work
TBI = settings: large multicenter clinical trials in TBI; ref [4],[5]; cited from earlier work
cathepsin B = settings: read-out: Ki for cathepsin B; calpain inhibitor II; ref [13],[24]; cited from earlier work
calpain-1 = settings: read-out: Ki for calpain-1; calpain inhibitor II; ref [13],[24]; cited from earlier work
[2] = test system: neurofilament and spectrin proteolysis in the cortex; settings: continuous intra-arterial infusion after TBI; ref [13],[24]; cited from earlier work
calpain-2 = settings: read-out: Ki for calpain-2; calpain inhibitor II; ref [13],[24]; cited from earlier work
[3] = test system: neuronal and hippocampal culture models of injury; settings: ref [16]−[19]; cited from earlier work
[4] = biological target: T1, recombinant human calpain-1 (Homo sapiens, UniProt P07384); assay: Inhibition of calpain-1 cleavage of CS FRET peptide by titrated CAST/ScrCAST; type: biochemical; settings: up to 1 μM; 8 μM CS substrate; 26.6 nM recombinant human calpain-1; 37C
T1 sequence (P07384 1-714): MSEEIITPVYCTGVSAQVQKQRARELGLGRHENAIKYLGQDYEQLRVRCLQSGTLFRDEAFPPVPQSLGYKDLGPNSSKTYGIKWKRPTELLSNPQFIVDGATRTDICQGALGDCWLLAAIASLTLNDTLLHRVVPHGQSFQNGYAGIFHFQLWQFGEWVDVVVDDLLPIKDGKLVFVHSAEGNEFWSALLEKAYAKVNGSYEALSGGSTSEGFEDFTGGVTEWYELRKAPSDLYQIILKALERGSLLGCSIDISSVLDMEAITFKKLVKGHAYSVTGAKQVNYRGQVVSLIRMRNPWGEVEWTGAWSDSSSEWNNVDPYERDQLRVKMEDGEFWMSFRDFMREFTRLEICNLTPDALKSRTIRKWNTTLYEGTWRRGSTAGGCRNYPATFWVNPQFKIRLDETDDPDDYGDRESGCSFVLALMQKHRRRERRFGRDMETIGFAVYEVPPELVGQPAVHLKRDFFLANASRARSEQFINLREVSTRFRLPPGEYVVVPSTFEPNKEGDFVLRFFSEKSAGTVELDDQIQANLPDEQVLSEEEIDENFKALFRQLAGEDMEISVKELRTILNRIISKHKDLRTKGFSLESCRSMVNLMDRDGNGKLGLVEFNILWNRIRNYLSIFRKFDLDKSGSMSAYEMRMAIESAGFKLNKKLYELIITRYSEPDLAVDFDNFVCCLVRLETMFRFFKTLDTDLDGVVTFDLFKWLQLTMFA
T1 sequence (P04632 1-268 partner): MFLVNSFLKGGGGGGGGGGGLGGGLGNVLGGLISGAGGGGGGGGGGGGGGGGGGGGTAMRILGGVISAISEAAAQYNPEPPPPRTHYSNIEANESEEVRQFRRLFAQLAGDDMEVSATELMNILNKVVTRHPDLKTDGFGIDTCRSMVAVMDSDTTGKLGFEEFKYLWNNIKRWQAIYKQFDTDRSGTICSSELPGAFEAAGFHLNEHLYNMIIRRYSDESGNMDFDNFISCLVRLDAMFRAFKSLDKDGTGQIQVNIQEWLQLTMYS

[5] = biological target: T1, recombinant human calpain-1; assay: CS activation of PEG conjugates by recombinant human calpain-1; type: biochemical; settings: 37C, 1 h
calpain [6] = assay: Activated CS signal in injured cortex and hippocampus, CCI mouse model; settings: mouse model of TBI, systemic administration
[7] = test system: calpain activity in the hippocampus; assay: Activated CS in hippocampal regions; settings: dentate gyrus, CA1, CA2, CA3; 1 h after injury; n = 10 mice, unpaired t-test

In the case of `CC[C@H](C)[C@H](NC(=O)[C@H](Cc1ccc(O)cc1)NC(=O)[C@@H](NC(=O)[C@H](CO)NC(=O)[C@H](CO)NC(=O)[C@H](CCSC)NC(=O)[C@@H]1CCCN1C(=O)[C@@H](N)CC(=O)O)[C@@H](C)O)C(=O)N[C@@H](CCC(=O)O)C(=O)N[C@@H](CCC(=O)O)C(=O)N[C@@H](CC(C)C)C(=O)NCC(=O)N[C@@H](CCCCN)C(=O)N[C@@H](CCCNC(=N)N)C(=O)N[C@@H](CCC(=O)O)C(=O)N[C@H](C(=O)N[C@H](C(=O)N[C@H](C(=O)N1CCC[C@H]1C(=O)N1CCC[C@H]1C(=O)N[C@@H](CCCCN)C(=O)N[C@@H](Cc1ccc(O)cc1)C(=O)N[C@@H](CCCNC(=N)N)C(=O)N[C@@H](CCC(=O)O)C(=O)N[C@@H](CC(C)C)C(=O)N[C@@H](CC(C)C)C(=O)N[C@@H](C)C(=O)N[C@@H](CCCCNC(=O)c1ccc2c(c1)C(=O)OC21c2ccc(O)cc2Oc2cc(O)ccc21)C(=O)N[C@@H](CS)C(N)=O)[C@@H](C)CC)[C@@H](C)O)C(C)C` [CAST] (H-DPMSSTYIEELGKREVTIPPKYRELLAK(5FAM)C-NH2; N-terminus assumed), the Ki (calpain [1]; calpastatin peptide, ref [32]−[35]) is listed as 42.6 nM and the Ki (cathepsin L) is listed as 6000 nM.

For `CC(=O)[C@H]1CC[C@H]2[C@@H]3CCC4=CC(=O)CC[C@]4(C)[C@H]3CC[C@]12C` [progesterone], the “efficacy as acute stage neuroprotective treatment” value (TBI) is listed as “failed to establish efficacy as an acute stage neuroprotective treatment”.

In the case of `CC(C)[C@H](NC(=O)OCc1ccccc1)C(=O)N[C@H](C=O)Cc1ccccc1` [MDL-28170] (Cbz-Val-Phe-aldehyde), the IC50 (calpain [1]; MDL-28170, ref [64]) is listed as 11 nM and the Ki (calpain [1]; MDL-28170, ref [20],[28]) is listed as 10 nM.

In the case of `CSCC[C@@H](C=O)NC(=O)[C@H](CC(C)C)NC(=O)[C@H](CC(C)C)NC(C)=O` [calpain inhibitor II] (Ac-Leu-Leu-Met-aldehyde), the Ki (cathepsin B) is given as 100 nM, the Ki (calpain-1) is given as 120 nM and the “neurofilament and spectrin proteolysis in the cortex” value [2] is given as “required continuous intra-arterial infusion after TBI to significantly reduce neurofilament and spectrin proteolysis in the cortex”. The Ki (calpain-2) was 230 nM and the “cell apoptosis, actin and spectrin proteolysis, DNA fragmentation” value [3] was “reduce cell apoptosis, suppress actin and spectrin proteolysis, and inhibit DNA fragmentation”.

For “APRLEIVPTMYIYKLSPTGSEKLEDER-K(5FAM)-C-NH2 [ScrCAST]”, the “detectable inhibitory activity on calpain-1” value [4] was “does not have any detectable inhibitory activity up to 1 μM”.

In the case of `CCCC[C@@H](C=O)NC(=O)[C@H](CC(C)C)NC(=O)[C@H](CC(C)C)NC(C)=O` [calpain inhibitor I] (Ac-Leu-Leu-[Nle]-aldehyde), the IC50 (calpain [1]; calpain inhibitor I, ref [63]) is given as 90 nM.

In the case of “CAST–PEG–CS: 40 kDa 8-arm PEG scaffold modified with CAST and CS peptide (activity-based nanotheranostic) (chain 1 DPMSSTYIEELGKREVTIPPKYRELLAKC; chain 2 QEVYGAMPKGC; not fully specified; 5FAM on the added lysine; C-terminal amide; cysteine joined to the 8-arm PEG by maleimide chemistry | QSY21 on the N-terminus; Cy5 on the lysine; PEG2 spacer between K(Cy5) and GC; c)”, the “inhibition of calpain-1 at increased enzyme concentration” value ([5]; calpain-1 up to 6U (∼380 nM), 8 μM CS) is reported as “able to inhibit activity and cleavage of the CS substrate compared to ScrCAST–PEG–CS”, the “CS activation by calpain-1” value ([5]; conjugates matched to 8 μM CS, 26.6 nM recombinant human calpain-1, Cy5 fluorescence) is reported as “no measured activation of CS peptide” and the “inhibition of calpain activity, cortical vs hippocampal neurons” value (calpain [6]) is reported as “greater ABNT-mediated inhibition of calpain activity in cortical neurons compared to that in hippocampal neurons”. The “sensor activation in hippocampal regions” value [7] was “inhibits activation of CS in the injured hippocampus”.
